US8101764B2, “MCH receptor antagonists” (Eli Lilly and Company, priority 2006, dated 2012)
pKi: −log10 of the molar value. Counter-ions that a name gives are not always drawn.

Experiments:
[1] = biological target: T1, human MCHR1 (Homo sapiens, UniProt Q99705); test: 125I-MCH competitive binding assay with clone 43 membranes; conditions: Ki from IC50 by Cheng-Prusoff
T1 construct: The full-length cDNA for human MCHR1 is cloned from a human adult brain cDNA library; expressed in transfected cells; host or cells: AV12 cells previously transfected with Gα15; membranes
T1 sequence (Q99705 whole entry): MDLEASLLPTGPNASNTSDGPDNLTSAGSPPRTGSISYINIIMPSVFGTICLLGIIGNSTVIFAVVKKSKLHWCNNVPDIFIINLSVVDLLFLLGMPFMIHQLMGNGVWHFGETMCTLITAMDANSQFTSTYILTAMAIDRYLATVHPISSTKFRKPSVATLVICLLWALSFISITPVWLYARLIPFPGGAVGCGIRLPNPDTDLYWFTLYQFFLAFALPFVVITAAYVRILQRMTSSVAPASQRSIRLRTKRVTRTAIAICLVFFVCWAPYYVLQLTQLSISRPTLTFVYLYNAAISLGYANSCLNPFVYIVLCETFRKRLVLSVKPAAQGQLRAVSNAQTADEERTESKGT
Protocol: (§1) The full-length cDNA for human MCHR1 is cloned from a human adult brain cDNA library (Edge Biosystems, Cat. 38356) by standard polymerase chain reaction (PCR) methodology employing the following primers: sense, 5′-GCCACCATGGACCT GGAAGCCTCGCTGC-3′ (SEQ ID NO:1); anti-sense, 5′-[…]-3′ (SEQ ID NO:2). The PCR reaction is performed in a final volume of 50 μL containing 5 μL of a 10× stock solution of PCR buffer, 1 μL of 10 mM dNTP mixture (200 μM final), 2 μL of 50 mM Mg(SO4) (2 mM final), 0.5 μL of 20 μM solutions of each primer (0.2 μM final), 5 μL of template cDNA containing 0.5 ng DNA, 0.5 μL of Platinum Taq High Fidelity DNA polymerase (Gibco Life Technologies) and 36 μL of H2O. […]
(§2) In order to generate cell lines stably expressing MCHR1, subclone the insert into the Xba I and Not I sites of pcDNA(+)-3.1-neomycin (Invitrogen). […] The G418-resistant colonies are further selected for MCHR1 expression by measuring MCH-stimulated Ca^2+ transients with a fluorometric imaging plate reader (FLIPR, Molecular Devices). […]
Binding of compounds to MCHR1 is assessed in a competitive binding assay employing ^125I-MCH, compound and clone 43 membranes. […] Non-specific binding is assessed in the presence of 0.1 μM unlabeled MCH. Bound ^125I-MCH is determined by placing sealed plates in a Microbeta Trilux (Perkin Elmer Life and Analytical Sciences Inc.) and counting after a 12 h delay. […]

[2] = In vivo efficacy in diet-induced obese rats, oral gavage, body weight change over 3 days; conditions: 10 mg/Kg orally once a day for 3 days, diet-induced obese male Long-Evans rats
Protocol: Vehicle consisted of 10% acacia and 0.15% saccharin in water.
House animals individually in a temperature regulated room (24° C.) with a reverse 12 hour light/dark cycle (dark 10:00/22:00). Make water and food (Teklad 95217, Harlan, WI) available ad libitum. Dose compounds orally once a day before onset of dark for 3 days. Measure daily food intake and body weight change for the 3 day period. The compound of Example 5 produced an average body weight reduction of about 11 grams @ 10 mg/Kg versus vehicle control.

[3] = biological target: T1, human MCHR1; test: Inhibition of MCH-stimulated GTPγ35S binding to clone 43 membranes (functional antagonism); assay type: biochemical; conditions: 10 nM MCH, Kb from IC50 by modified Cheng-Prusoff
Protocol: as §1, with “H2O. PCR amplification is performed on a Perkin Elmer 9600 thermocycler. Perform denaturation for 90 sec at 94° C., and repeat an amplification sequence consisting of 94° C. for 25 sec, 55° C. for 25 sec and 72° C. for […] 30 times, followed by a final elongation step at 72° C. for 10 min.” for “H2O.”
as §2

| SMILES | pKi [1] | average body weight reduction versus vehicle control [2] | Kb [3] |
| --- | --- | --- | --- |
| CN(C)[C@@H]1CCN(c2ccc(-n3ccc4cc(-c5ccc(OC6CC6)cc5)sc4c3=O)cn2)C1 [Example 55, 2-(4-Cyclopropoxy-phenyl)-6-[6-(R)-(3-dimethylamino-pyrrolidin-1-yl)-pyridin-3-yl]-6H-thieno[2,3-c]pyridin-7-one, hydrochloride] | ~8.05 | – | – |
| CN(C)[C@@H]1CCN(c2ccc(N3CCc4cc(-c5ccc(Cl)cc5)sc4C3=O)cn2)C1.Cl [Example 5, 2-(4-Chloro-phenyl)-6-[6-((R)-3-dimethylamino-pyrrolidin-1-yl)-pyridin-3-yl]-5,6-dihydro-4H-thieno[2,3-c]pyridin-7-one, hydrochloride] | – | about 11 grams | ~7 nM |
